Legend:
DENV-2 NS5 / IMPα/β = DENV-2 NS5 / IMPα/β (Dengue virus type 2, UniProt P14340); assay: AlphaScreen binding of His6-NS5 to IMPα/β heterodimer
Protocol: AlphaScreen®, a luminescent bead-based assay that measures direct protein-protein interactions, was used to examine the binding of 3 nM His6-NS5 to 10 nM IMPα/β (IMPα/β heterodimer containing biotinylated IMPβ1) in the presence of increasing concentrations of 4-HPR, 4-MPR or ATRA (FIG. 1A), or 4-oxo-4-HPR, 4-HPR or 4-MPR (FIG. 1B). Data are the mean±standard deviation (SD) of triplicate wells from a single typical experiment.
(§1) To investigate the specificity of 4-HPR inhibition of NS5-importin association, the binding of 30 nM His6-NS5 to 10 nM IMPα/β, (IMPα/β heterodimer containing biotinylated IMPβ1), 3 nM IMPαΔIBB (biotinylated IMPa with the IMPβ-binding domain removed), or 3 nM biotinylated IMPβ1, in the presence of increasing concentrations of 4-HPR, was investigated.

DENV-2 NS5 / IMPαΔIBB = DENV-2 NS5 / IMPαΔIBB (Dengue virus type 2, UniProt P14340); assay: AlphaScreen binding of His6-NS5 to IMPαΔIBB
Protocol: as §1

DENV-2 NS5 / IMPβ1 = DENV-2 NS5 / IMPβ1 (Dengue virus type 2, UniProt P14340); assay: AlphaScreen binding of His6-NS5 to biotinylated IMPβ1; settings: 30 nM His6-NS5, 3 nM biotinylated IMPβ1, increasing concentrations of 4-HPR
Protocol: as §1

DENV-3 = assay: Cell-based flavivirus immunodetection assay in BHK-21 cells, DENV-3; settings: MOI of 0.3, 48 h p.i.
Protocol: (§2) To investigate this, BHK-21 cells were infected with DENV serotypes 1, 2, 3 or 4 (MOI of 0.3) for 1 h in the presence of 4-HPR or 4-MPR (concentrations as indicated in FIG. 6A). Virus inoculum was removed and fresh media containing the indicated compounds was added. Virus infection rates were determined 48 h p.i. using a cell-based flavivirus immunodetection assay. Briefly, cells were fixed and stained for DENV structural protein, E, followed by addition of Alexa Fluor 488 anti-mouse IgG. Viral antigen quantification was performed using Imagexpress. Data shown are representative of a single experiment

DENV-4 [1] = assay: Cell-based flavivirus immunodetection assay in BHK-21 cells, DENV-4; settings: Dengue virus, DENV4, BHK-21, 48 h, read-out: EC50, DENV-4 replication
Protocol: as §2

DENV-2 = assay: Plaque assay in Huh-7 cells, DENV-2; assay type: cell-based; settings: Dengue virus, DENV2, Huh-7, 48 h, read-out: EC50, infectious virus titre DENV 2
Protocol: (§3) To ensure the antiviral activity of 4-HPR is not cell-line specific Huh-7 cells were also infected with DENV-1, 2, 3 or 4 (MOI of 0.3) in the presence of increasing concentrations of 4-HPR, with infectious virus titres determined by plaque assay at 48 h p.i.

DENV-4 [2] = assay: Plaque assay in Huh-7 cells, DENV-4; assay type: cell-based; settings: Dengue virus, DENV4, Huh-7, 48 h, read-out: EC50, infectious virus titre DENV 4
Protocol: as §3

DENV-1 = assay: ADE-mediated DENV-1 infection of human PBMCs, plaque assay; assay type: cell-based; settings: Dengue virus, DENV1, PBMC, MOI of 10, 48 h, read-out: ex vivo EC50, ADE-mediated DENV-1 infection
Protocol: The antiviral activity of 4-HPR was investigated in the more physiologically relevant human system of peripheral blood mononuclear cells (PBMCs), a major target of DENV infection in humans.
PBMCs were prepared from a healthy donor buffy coat using a Ficoll gradient, prior to ADE-mediated DENV-1 infection (MOI of 10) in the presence of increasing concentrations of 4-HPR or 4-MPR, and infectious virus titres determined by plaque assay 48 h later.

DENV-2 strain (S221) = assay: Lethal mouse infection model, AG129 mice infected with mouse adapted DENV-2 strain S221; assay type: in vivo; settings: 20 mg/kg orally
Source text: Mice have previously been used as an in vivo model for 4-HPR pharmacokinetics. To examine the effect of 4-HPR on DENV infection in vivo, a lethal mouse infection model, which uses a mouse adapted DENV-2 strain (S221), to infect Sv/129 mice deficient in type I and II interferon receptors (AG129) was used (Zellweger et al., 2010, Cell Host Microbe). Viral infection in this system is enhanced by intraperitoneal delivery of a sub-neutralizing concentration of 4G2 antibody 1 day prior to infection, resulting in peak viremia 3 days p.i. and death of infected mice by day 5. Here, mice were treated with 20 mg/kg of 4-HPR, administered orally at the time of infection, then once (QD) or twice (BID) daily for 5 consecutive days. Consistent with previous reports, infected, untreated mice all died by day 5 (FIG. 8B). Once daily treatment of mice with 4-HPR was sufficient to provide protection to 20% of mice, which recovered from the infectious challenge, whereas increasing the dose to 2 treatments daily, improved protection to 70% (7 of 10 mice recovered from the infectious challenge).
Data are the mean+SEM. Statistical analysis (Student's t test) was performed using Graph Pad Prism software (ns, not significant).

CHIKV = CHIKV infection of HEK293T cells, plaque assay; assay type: cell-based; settings: 5 μM, 24 h p.i.
Protocol: HEK293T cells were treated with 5 μM 4-HPR or 4-MPR for 2 h, then infected with CHIKV for 1 h (MOI of 0.1) in the absence of compound (FIG. 9A). Alternatively, HEK293T cells were infected with CHIKV for 1 h (MOI of 0.1) without pre-treating the cells with compound (FIG. 9B). In both instances, virus inoculums were removed, then fresh medium containing the indicated compound was added (FIG. 9A and FIG. 9B). Infectious virus titres were determined by plaque assay 24 h p.i. Data are the mean+standard deviation of one experiment performed in duplicate wells, represented as plaque forming units per ml (PFU/ml).

PERK pathway = assay: Activation of PERK pathway of the unfolded protein response in DENV-infected cells; assay type: cell-based

CC1=C(/C=C/C(C)=C/C=C/C(C)=C/C(=O)Nc2ccc(O)cc2)C(C)(C)CCC1 [4-HPR, N-(4-hydroxyphenyl) retinamide]
IC50 (DENV-2 NS5 / IMPα/β): 1200 nM
block of association of DENV-2 NS5 with IMPα/β (DENV-2 NS5 / IMPα/β; 3 nM His6-NS5, 10 nM IMPα/β, increasing concentrations of compound): able to block association
IC50 (DENV-2 NS5 / IMPαΔIBB): 1600 nM
NS5 binding to IMPβ1 alone (DENV-2 NS5 / IMPβ1): largely unaffected
EC50, DENV-3 replication (DENV-3): low EC50
EC50 (DENV-4 [1]): 840 nM
EC50 (DENV-2): 2100 nM
EC50 (DENV-4 [2]): 2100 nM
EC50 (DENV-1): 810 nM
average plasma viral titre lower than untreated group, 3 days p.i. (DENV-2 strain (S221); BID treatment group): 65%
average plasma viral titre 3 days p.i. (DENV-2 strain (S221); QD treatment group): small reduction
protection (mice recovered from the infectious challenge) (DENV-2 strain (S221); once daily (QD) for 5 days): 20%
protection (mice recovered from the infectious challenge) (DENV-2 strain (S221); twice daily (BID) for 5 days): 70%
reduction of infectious CHIKV produced (CHIKV; HEK293T cells pre-treated 2 h with compound): ~100%
reduction of infectious CHIKV produced (CHIKV; HEK293T cells, compound added after infection): ~95%
activation of PERK pathway within the unfolded protein response (PERK pathway): induces activation of the pro-apoptotic PERK pathway
